# System: LNCaP xenografts
# Test: In vivo chemotherapy, LNCaP xenografts
# Parameters: species or system male athymic, nude mice
# Settings: 0.4 mM, 100 μL retro-orbital injection daily from implantation
# Method: Male, athymic, nude mice (Harlan Laboratories, Indianapolis, Ind.) were implanted with LNCaP xenografts (3 million cells in 100 μL Matrigel) on each flank. Immediately post xengraft implantation, the mice were treated daily iv with 2-PMPA (0.4 mM, 100 μL retro-orbital injection). Tumor volume was assessed by measuring the tumor with microcalipers. Combination therapy was performed with male athymic, nude mice with LNCaP xenografts, which were treated daily post tumor detection. Chemotherapy was administered by iv (100 μL retro-orbital injection) with animals receiving either enzalutamide (0.15 mM), 2-PMPA (3 mM) or both compounds (0.15 mM enzalutamide and 3 mM 2-PMPA). Male athymic, nude mice with PC3-PSMA xenografts (3 million cells in 100 μL Matrigel) were treated with either vehicle (DMSO) or a combination of AZD8055 and XL184 (AZD8055 0.4 mM and XL184 8 μM 100 μL retro-orbital injection).
# Tumor growth was examined using daily treatment of male athymic, nude mice with LNCaP xenografts on their flanks Each animal's flanks were injected with 3,000,000 cells in 100 μL matrigel, and the animals were immediately treated with 2-PMPA (0.4 mM, 100 μL retro-orbital injection). Tumor volume was assessed by measuring the tumor with microcalipers. […] In a different study, male athymic, nude mice with LNCaP xenografts were treated daily post tumor detection, with either enzalutamide (0.15 mM, 100 μL retro-orbital injection), 2-PMPA (3 mM, 100 μL retro-orbital injection) or both compounds (0.15 mM enzalutamide and 3 mM 2-PMPA, 100 μL retro-orbital injection). […] (FIG. 9c-d).
compound,measurement,setting,value
O=C(O)CCC(CP(=O)(O)O)C(=O)O (stereo not drawn) [2-PMPA],tumor size and growth,,smaller tumors that grew slowly
same,tumor initiation,FIG. 9a,did not affect tumor initiation
same,animal survival,FIG. 9b,extended the animals survival

# Reference: patent US20170252433A1, “PSMA-RELATED THERAPIES” (Memorial Sloan Kettering Cancer Center, priority 2014, published 2017)
